Laboratory results as given in PMC10694654 (The Journal of Biological Chemistry, 2023).

B1: tagless AphAEc (periplasmic acid phosphatase AphA of Escherichia coli, His6-SUMO tag cleaved off by Ulp1) (enzyme)
chain: SPSPLNPGTNVARLAEQAPIHWVSVAQIENSLAGRPPMAVGFDIDDTVLFSSPGFWRGKKTFSPESEDYLKNPVFWEKMNNGWDEFSIPKEVARQLIDMHVRRGDAIFFVTGRSPTKTETVSKTLADNFHIPATNMNPVIFAGDKPGQNTKSQWLQDKNIRIFYGDSDNDITAARDVGARGIRILRASNSTYKPLPQAGAFGEEVIVNSEY
notes: AphA, nonspecific periplasmic acid phosphatase of Escherichia coli K-12; protein of around 25 kDa on SDS-PAGE; pET24d-his-sumo-aphAEc; linker between SUMO and aphA removed by mutagenesis; probably the mature protein as in m1 and m2; also called cleaved His6-SUMO-AphAEc; source: E. coli, purified; His6-SUMO tag cleaved off with His6-Ulp1, size-exclusion chromatography; not shown: His6-SUMO, …
B2: AphAEc-His6 (periplasmic acid phosphatase AphA of Escherichia coli, signal peptide removed, C-terminal His6 tag) (enzyme, UniProt P0AE22 26-237, looked up)
chain: SSPSPLNPGTNVARLAEQAPIHWVSVAQIENSLAGRPPMAVGFDIDDTVLFSSPGFWRGKKTFSPESEDYLKNPVFWEKMNNGWDEFSIPKEVARQLIDMHVRRGDAIFFVTGRSPTKTETVSKTLADNFHIPATNMNPVIFAGDKPGQNTKSQWLQDKNIRIFYGDSDNDITAARDVGARGIRILRASNSTYKPLPQAGAFGEEVIVNSEY
notes: AphA, nonspecific periplasmic acid phosphatase of Escherichia coli K-12; signal peptide removed from the construct; pET28a-aphAEc-his; also called AphA-His6; Ct His6-tagged AphAEc; source: E. coli, purified (Ni-NTA, size-exclusion chromatography on Superdex 200 Increase); not shown: His6, C-terminal, kept
B3: His6-AphAEc (periplasmic acid phosphatase AphA of Escherichia coli, signal peptide removed, N-terminal His6 tag) (enzyme, UniProt P0AE22 26-237, looked up)
chain: B2 chain
notes: AphA, nonspecific periplasmic acid phosphatase of Escherichia coli K-12; signal peptide removed from the construct; pET28a-his-aphAEc; also called Nt His6-tagged AphAEc; source: E. coli, purified (Ni-NTA, size-exclusion chromatography on Superdex 200 Increase); not shown: His6, N-terminal, kept

Assays:
AphAEc-His6 = biological target: T1, AphAEc-His6 (Escherichia coli, UniProt P0AE22); assay: DRaCALA competition against […]-cAMP; format: binding; details: 5 mM AMP (figure legend: 4 mM); 2 nM 32P-cAMP; 40 mM Tris pH 7.5, 100 mM NaCl, 10 mM MgCl2
T1 construct: gene aphA; signal peptide removed, C-terminal His6 kept, pET28a, expressed in E. coli; non-natural dimer by SEC

His6-AphAEc = biological target: T2, His6-AphAEc (Escherichia coli, UniProt P0AE22); assay: DRaCALA competition against […]-cAMP; format: binding; details: 5 mM AMP (figure legend: 4 mM); 2 nM 32P-cAMP; 40 mM Tris pH 7.5, 100 mM NaCl, 10 mM MgCl2
T2 construct: gene aphA; signal peptide removed, N-terminal His6 kept, pET28a, expressed in E. coli; tetramer by SEC

His6-HelHi = biological target: T3, His6-HelHi (Haemophilus influenzae, UniProt P26093); assay: pNPP phosphatase assay, A405; format: biochemical; details: 1 mM pNPP, 15 nM enzyme, pH 8 and 5.6
T3 construct: gene hel; N-terminal His6 kept, pET28a-his-helHi, expressed in E. coli

[1] = biological target: the molecule itself; assay: SEC; Superdex 200 Increase 10/300 GL on an AKTA system; size estimated against standard proteins

T3 sequence (P26093 21-274): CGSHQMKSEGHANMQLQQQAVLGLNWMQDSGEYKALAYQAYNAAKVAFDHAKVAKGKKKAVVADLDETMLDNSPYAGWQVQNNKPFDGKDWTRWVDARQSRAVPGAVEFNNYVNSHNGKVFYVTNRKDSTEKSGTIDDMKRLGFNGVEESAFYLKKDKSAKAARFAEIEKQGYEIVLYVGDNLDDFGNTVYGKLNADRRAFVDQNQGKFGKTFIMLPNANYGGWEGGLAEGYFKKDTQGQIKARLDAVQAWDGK

| Molecule | stoichiometry N [1] | also measured |
| --- | --- | --- |
| Nc1ncnc2c1ncn2[C@@H]1O[C@H](COP(=O)(O)O)[C@@H](O)[C@H]1O [AMP] |  | DRaCALA competition against 32P-cAMP (AphAEc-His6): the binding fractions dropped to nearly zero for AMP; DRaCALA competition against 32P-cAMP (His6-AphAEc): the binding fractions dropped to nearly zero for AMP |
| O=[N+]([O-])c1ccc(OP(=O)(O)O)cc1 [p-Nitrophenyl Phosphate] |  | pNPP phosphatase assay, A405 (His6-HelHi): acid phosphatase assay of the His6-HelHi protein |
| B1 | 4 |  |
| B2 | 2 |  |
| B3 | 4 |  |
